Values quoted from earlier work, collected in paper PMC4405790 (Pharmaceutical research, 2012).
Entries after “also recorded” stand apart in the source; their conditions may differ.

Assays:
[1] = aqueous

Cc1cc(C)cc(C(=O)c2c(C(C)C)c(=O)[nH]c(=O)n2CC2CC2)c1 [IQP-0528, 1-(3-Cyclopropyl)methyl-6-(3,5-dimethylbenzoyl)-5-isopropyl-2,4(1H,3H)-pyrimidinedione]
solubility [1]: low solubility; also recorded: very low solubility
activity against laboratory strains of virus (HIV): nanomolar
activity against representative clinical strains of HIV (HIV): nanomolar to subnanomolar
level of activity as a NNRTI (HIV; cell-based in vitro assays): subnanomolar
level of activity as inhibitor of a step in virus entry (HIV; cell-based in vitro assays): nanomolar
